Read-outs that look alike come from different tables or passages of the source.
System: NLRP3
Experiment: IL-1β secretion assay in PMA-differentiated, LPS/nigericin-stimulated THP-1 cells (384-well, ELISA read-out)
Assay type: cell-based, human
Summary of the method: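 THP-1 cells differentiated with PMA (5 ng/mL, 40 h), primed in serum-free medium with 25 ng/mL LPS for 2 h, treated with compounds 1 h (0.5% DMSO), then stimulated with nigericin for 2 h at 37 °C. Supernatant IL-1β measured by ELISA; responses normalized to LPS+5 μM nigericin and LPS-only controls.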

[1] = Homo sapiens, THP-1, Table 4, IL-1β secretion, LPS/nigericin-stimulated THP-1 cells, read-out: IC50
[2] = Homo sapiens, THP-1, IL-1β secretion, PMA-differentiated THP-1 cells, LPS then nigericin stimulation, ELISA read at 450 nm, read-out: Activity

Row | SMILES | IC50 [1] | IC50 (IL-1β secretion, PMA-differentiated THP-1 cells, LPS then nigericin stimulation, ELISA read at 450 nm, read-out: Activity) | IC50 (Table 4, IL-1β secretion, LPS/nigericin-stimulated THP-1 cells, read-out: IC50) | IC50 [2]
1 | O=C(CN1CC2(CC2)c2cc(Br)ccc2C1=O)Nc1ncc(C(F)F)cc1F [Example 419, 2-(6-bromo-1-oxospiro[3H-isoquinoline-4,1′-cyclopropane]-2-yl)-N-[5-(difluoromethyl)-3-fluoropyridin-2-yl]acetamide] | 0.769 µM | – | – | –
2 | O=C(CN1CC2(CC2)c2cc(Br)ccc2C1=O)Nc1ncc(C2=COCC2)cn1 [Example 424, 2-(6-bromo-1-oxospiro[3H-isoquinoline-4,1′-cyclopropane]-2-yl)-N-[5-(2,3-dihydrofuran-4-yl)pyrimidin-2-yl]acetamide] | 0.7 µM | – | – | –
3 | O=C(CN1CC(CF)c2cc(Br)ccc2C1=O)Nc1ncc(F)cn1 (single isomer, unassigned) [Example 293, 2-[6-bromo-4-(fluoromethyl)-1-oxo-3,4-dihydroisoquinolin-2-yl]-N-(5-fluoropyrimidin-2-yl)acetamide] | – | < 10 µM | 0.134 µM | –
4 | COc1cnc(NC(=O)CN2CC3(CC3)c3cc(Br)ccc3C2=O)nc1 [Example 185, 2-(6-bromo-1-oxospiro[3H-isoquinoline-4,1′-cyclopropane]-2-yl)-N-(5-methoxypyrimidin-2-yl)acetamide] | 0.469 µM | – | – | < 10 µM
5 | N#Cc1ccc2oc(NC(=O)CN3CC4(CC4)c4cc(Br)ccc4C3=O)nc2c1 [Example 219, 2-(6-bromo-1-oxospiro[3H-isoquinoline-4,1′-cyclopropane]-2-yl)-N-(5-cyano-1,3-benzoxazol-2-yl)acetamide] | 1.62 µM | – | – | < 10 µM
6 | CC1CC12CN(CC(=O)Nc1ncccn1)C(=O)c1ccc(C(F)(F)F)cc12 (centres unmarked) [Example 29, 2-[2′-methyl-1-oxo-6-(trifluoromethyl)spiro[3H-isoquinoline-4,1′-cyclopropane]-2-yl]-N-pyrimidin-2-yl-acetamide] | 0.392 µM | – | – | < 10 µM
7 | O=C(CN1CC2(CC2)c2cc(Br)ccc2C1=O)Nc1ccc(OC(F)F)cn1 [Example 36, 2-(6-bromo-1-oxo-spiro[3H-isoquinoline-4,1′-cyclopropane]-2-yl)-N-[5-(difluoromethoxy)-2-pyridyl]acetamide] | 2.72 µM | – | – | < 10 µM
8 | O=C(CN1CC2(CCCC2)c2cc(Br)ccc2C1=O)Nc1ncccn1 [Example 75, 2-(6-bromo-1-oxo-spiro[3H-isoquinoline-4,1′-cyclopentane]-2-yl)-N-pyrimidin-2-yl-acetamide] | 12.3 µM | – | – | 10 to 15 µM
9 | CC(C)(C)OC(=O)N1CCC12CC(NC(=O)CN1CC3(CC3)c3cc(Br)ccc3C1=O)C2 (centres unmarked) [Example 394, tert-butyl 6-[[2-(6-bromo-1-oxospiro[3H-isoquinoline-4,1′-cyclopropane]-2-yl)acetyl]amino]-1-azaspiro[3.3]heptane-1-carboxylate] | 5.21 µM | – | – | –
10 | O=C(CN1CC2(CC2)c2cc(Br)ccc2C1=O)NC1CCN(CC(F)(F)F)CC1 [Example 375, 2-(6-bromo-1-oxospiro[3H-isoquinoline-4,1′-cyclopropane]-2-yl)-N-[1-(2,2,2-trifluoroethyl)piperidin-4-yl]acetamide] | 11.1 µM | – | – | –
11 | O=C(CN1CC2(CC2)c2cc(Br)ccc2C1=O)Nc1noc2ccccc12 [Example 377, N-(1,2-benzoxazol-3-yl)-2-(6-bromo-1-oxospiro[3H-isoquinoline-4,1′-cyclopropane]-2-yl)acetamide] | 2.25 µM | – | – | –
12 | N#Cc1ccc2nc(NC(=O)CN3CC4(CC4)c4cc(Br)ccc4C3=O)oc2c1 [Example 207, 2-(6-bromo-1-oxospiro[3H-isoquinoline-4,1′-cyclopropane]-2-yl)-N-(6-cyano-1,3-benzoxazol-2-yl)acetamide] | 0.487 µM | – | – | < 10 µM
13 | CN1CCC(NC(=O)CN2CC3(CC3)c3cc(Br)ccc3C2=O)CC12CC2 (centres unmarked) [Example 370, 2-(6-bromo-1-oxospiro[3H-isoquinoline-4,1′-cyclopropane]-2-yl)-N-(4-methyl-4-azaspiro[2.5]octan-7-yl)acetamide] | 5.97 µM | – | – | –
